From patent US5985292A, “Active phospholipids as a vector for active molecules” (Roussel-UCLAF, priority 1993, dated 1999) come the findings set out here.

The test system of the experiment is comedones. The note with it: topical. The procedure:
As an example, the comedolytic power of all-trans 2-retinoyl phosphatidinyl ethanol was tested following the protocol below:
The animal chosen for the test of comedolytic activity was the Hairless Rhino (hr rh) mouse of female sex, this choice being due to the fact that the skin of such an animal has a high density of comedones having a large diameter and narrow orifice. The use of comedolytic agents on the skin of the animal provokes the opening of the orifice of the comedones, the release of the horny material and the sebum that it contains.
Two groups comprising six mice each which were six-week's old at the start of the test and weighing on average 18 grams each were used. The first group were mice treated with distilled water (negative control group) and the second group were mice treated with the product under study. The treatment consisted of a topical use of the product studied on the interscapular area at a dose of 0.02 ml, 5 days out of 7, for 21 days. The animals were sacrificed at the end of three weeks of treatment, 24 hours after the last application.
Biopsies of the skin were then taken from the treated areas of the animals and from these biopsies, sections were prepared for a standard morphometric study by methods known to a person skilled in the art. The following parameters were measured: diameter of the opening of the comedon at the surface i.e d […]
comedonian profile i.e R = d/D
The ratio R=d/D allowed the action of the comedolytic agents to be quantified.
The percentage of inhibition of the comedones was calculated for the product under study relative to the negative control, i.e. the following ratio: [formula]

For the substance “all-trans 2-retinoyl phosphatidinyl ethanol”, under “0.1% in solution in ethylenediglycol, interscapular, 0.02 ml, 5 days out of 7, for 21 days”, the “% inhibition of the comedones relative to the negative control” value turned out to be 14.1%. In addition, for the setting “0.1% in solution in ethylenediglycol, interscapular, 0.02 ml, 5 days out of 7, for 21 days, negative control (distilled water) R = 0.78”, the “comedonian profile R = d/D (diameter of the opening of the comedon at the surface / diameter of the comedon)” value came to 0.89. Under “at a dose of 0.1%, 21 days”, the “comedolytic activity (in words)” value is reported as “good comedolytic activity”.
